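In this assay, cells in 96-well plates receive the compound at five concentrations for 48 hours. Endpoints are linearly interpolated between the surrounding concentrations. At the GI50, growth is halved.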 Activity calls are given as the source filed them. Cut-off read from the data, not from the text of the source: active = GI50 up to about 1.1 µM and inactive = higher.
How the values were obtained:
Test in all cases: NCI anticancer screen, dose series, 48 h
A498 = system: A498
A549 = system: A549
CAKI-1 = system: CAKI-1
EKVX = system: EKVX
HCT-116 = system: HCT-116
Hs-578T = system: Hs-578T
K562 = system: K562
LOX IMVI = system: LOX IMVI
NCI-H226 = system: NCI-H226
NCI-H522 = system: NCI-H522
OVCAR-5 = system: OVCAR-5
RPMI-8226 = system: RPMI-8226
SF-539 = system: SF-539
SK-MEL-28 = system: SK-MEL-28
SK-MEL-5 = system: SK-MEL-5
SK-OV-3 = system: SK-OV-3
T47D = system: T47D
U-251 = system: U-251
UACC-257 = system: UACC-257
UACC-62 = system: UACC-62

Measured: GI50

O=C(O)c1nc2nc(Cl)c(Cl)nc2[nH]1
inactive: A498 > 100 µM | A549 > 100 µM | CAKI-1 > 100 µM | EKVX > 100 µM | HCT-116 > 100 µM | Hs-578T > 100 µM | K562 > 100 µM | LOX IMVI > 100 µM | NCI-H226 > 100 µM | NCI-H522 > 100 µM | OVCAR-5 > 100 µM | RPMI-8226 > 100 µM | SF-539 > 100 µM | SK-MEL-28 > 100 µM | SK-MEL-5 > 100 µM | SK-OV-3 > 100 µM | T47D > 100 µM | U-251 > 100 µM | UACC-257 > 100 µM | UACC-62 > 100 µM

Cc1nc2cccc([N+](=O)[O-])c2c(NCCCN(C)C)c1C
inactive: A498 34.8 µM | A549 60.4 µM | CAKI-1 32.9 µM | EKVX > 31.6 µM | HCT-116 20.9 µM | Hs-578T > 61.1 µM | K562 31.7 µM | LOX IMVI 84.9 µM | NCI-H226 > 50.6 µM | NCI-H522 15.2 µM | OVCAR-5 27 µM | RPMI-8226 34.8 µM | SF-539 45.4 µM | SK-MEL-28 > 100 µM | SK-MEL-5 35.6 µM | SK-OV-3 > 100 µM | T47D > 100 µM | U-251 > 79.8 µM | UACC-257 23 µM | UACC-62 > 100 µM

C=CC(C)(O)CCC1C(=C)C(O)CC2C(C)(C)CCCC12C (stereo not given)
inactive: A498 18.3 µM | A549 22.1 µM | CAKI-1 23.5 µM | EKVX 19.1 µM | HCT-116 17.9 µM | Hs-578T 22.6 µM | K562 14.4 µM | LOX IMVI 19.2 µM | NCI-H226 15.6 µM | NCI-H522 17.6 µM | OVCAR-5 20 µM | RPMI-8226 20 µM | SF-539 17.9 µM | SK-MEL-28 18.7 µM | SK-MEL-5 16 µM | SK-OV-3 33.3 µM | T47D 23.5 µM | U-251 15.5 µM | UACC-257 19 µM | UACC-62 16 µM

CCOC(=O)C(SCCO)C(C(=O)OCC)n1cc(C)c(=O)[nH]c1=O (stereo not given)
inactive: A498 20.4 µM | A549 52.8 µM | CAKI-1 4.44 µM | EKVX 30.7 µM | HCT-116 7.41 µM | Hs-578T 63.4 µM | K562 3.48 µM | LOX IMVI 6.84 µM | NCI-H226 > 32.7 µM | NCI-H522 3.3 µM | OVCAR-5 15 µM | RPMI-8226 7.89 µM | SF-539 23.1 µM | SK-MEL-28 19.4 µM | SK-MEL-5 23.2 µM | SK-OV-3 > 79.3 µM | T47D 19.6 µM | U-251 11.5 µM | UACC-257 28.2 µM | UACC-62 16.3 µM

CCOc1ccc2c(c1)NC(=O)C(C1OC(c3ccccc3)=CC1=O)S2 (stereo not given)
inactive: A498 > 100 µM | A549 17.3 µM | CAKI-1 34.5 µM | EKVX 25.1 µM | HCT-116 35.6 µM | Hs-578T 27.5 µM | K562 24.2 µM | LOX IMVI 23.2 µM | NCI-H226 27.7 µM | NCI-H522 10.4 µM | OVCAR-5 16.1 µM | RPMI-8226 12 µM | SF-539 25.1 µM | SK-MEL-28 31 µM | SK-MEL-5 18.8 µM | SK-OV-3 16.1 µM | T47D 15.8 µM | U-251 19.7 µM | UACC-257 56.5 µM | UACC-62 15 µM

C=C(Br)C[N+]12CN3CN(CN(C3)C1)C2
inactive: A498 > 100 µM | A549 > 100 µM | CAKI-1 > 100 µM | EKVX > 100 µM | HCT-116 > 100 µM | Hs-578T > 100 µM | K562 > 100 µM | LOX IMVI > 100 µM | NCI-H226 > 100 µM | NCI-H522 > 100 µM | OVCAR-5 > 100 µM | RPMI-8226 > 100 µM | SF-539 > 100 µM | SK-MEL-28 > 100 µM | SK-MEL-5 > 100 µM | SK-OV-3 > 100 µM | T47D > 100 µM | U-251 > 100 µM | UACC-257 > 100 µM | UACC-62 > 100 µM

NCCC(N)C(=O)O (stereo not given)
inactive: A498 > 100 µM | A549 > 100 µM | CAKI-1 > 100 µM | EKVX > 100 µM | HCT-116 > 100 µM | Hs-578T > 100 µM | K562 > 100 µM | LOX IMVI > 100 µM | NCI-H226 > 100 µM | NCI-H522 > 100 µM | OVCAR-5 > 100 µM | RPMI-8226 > 100 µM | SF-539 > 100 µM | SK-MEL-28 > 100 µM | SK-MEL-5 > 100 µM | SK-OV-3 > 100 µM | T47D > 100 µM | U-251 > 100 µM | UACC-257 > 100 µM | UACC-62 > 100 µM

Reference: ChEMBL document CHEMBL1201862, “PubChem BioAssay data set” (2004)
